Experimental data: PubChem BioAssay AID2060505 (Molecular Pharmacology Branch, DTP, NCI, 2025)

Tested on: 633275-114-R-J1-PDC complex spheroids, viability
Test: Anticancer human tumor 633275-114-R-J1-PDC patient-derived endometrial adenocarcinoma cell line growth inhibition [GQUAD]
Details: for IC50: curve of first compound; for viability, T/C: stronger effect = lower value
From the text: DNA G-quadruplex Stabilizer Agents in Combinations in Complex Spheroids
A high-throughput screen of multi-cell type tumor spheroids was designed to identify active combinations of DNA G-quadruplex stabilizer agents and targeted small molecules. Complex spheroids include a stromal component modeled by human endothelial cells (HUVEC) and fibroblasts modeled by human mesenchymal stem cells (MSCs). The concentration ranges selected for each drug and investigational agent were based upon clinically achievable concentrations if the clinical Cmax of the agent was known.
Compounds. The drugs and investigational agents: pidnarulex (CX-5461; NSC782164), APTO-253 (NSC789042), BRACO-19 (NSC847499), peposertib (NSC802822), ceralasertib (NSC780249), elimusertib (NSC800525), camonsertib (NSC841442), AZD-1390 (NSC803789), olaparib (NSC753686), talazoparib (NSC767125), ART-558 (NSC835418), sotorasib (NSC818433), MRTX-1133 (NSC836407), SN-38 (NSC673596), topotecan (NSC609699), etoposide (NSC141540), doxorubicin (NSC123127), gemcitabine (NSC613327), 5-fluorouracil (NSC19893), paclitaxel (NSC125973), vemurafenib (NSC761431), panobinostat (NSC761190), R-306465 (JNJ-16241199; NSC773264), adavosertib (NSC754352), TP-3654 (NSC805149), carboplatin (NSC241240), KSQ-4279 (NSC840948), and staurosporine (NSC755774) were obtained from the National Cancer Institute (NCI) Developmental Therapeutics Program Chemical Repository (34). The FDA-approved anticancer drug set is available from the NCI Developmental Therapeutics Program. […] The stock solutions were prepared in dimethyl sulfoxide (DMSO, Sigma-Aldrich, St. Louis, MO, cat. D2650) at 800-fold the tested concentration and stored at -70 degrees C prior to their use. All drugs and investigational agents were tested over a range starting from a high concentration at or near the clinical Cmax and decreasing in half-log increments. If the clinical Cmax for an agent had not been determined, the highest concentration tested was 10 microM.
2.3 Cell Culture. All cells were maintained in an incubator at 37 degrees C and 5% CO2 with 95% humidity. The PDC lines were cultured according to standard operating procedures established by the NCI PDMR. All PDCs were thawed and cultured in Matrigel-coated flasks prepared with a working solution of 1X Ham's F-12 nutrient mix, without supplementation (Invitrogen, cat. 11765054), 100 U/mL penicillin-streptomycin (Invitrogen, cat. 15140122), and 2.5% Matrigel (Corning Inc., cat. 354248) for the first three passages. The 857933-349-R-J2-PDC line was cultured in 6C/Colon 1B media, which includes advanced DMEM/F-12 (Thermo Fisher Scientific, cat. 12634028), 10 mM HEPES (Thermo Fisher Scientific, cat. 15630080), 1X GlutaMAX supplement (Thermo Fisher Scientific, cat. 35050061), 0.1 mg/mL primocin (InvivoGen, cat. ant-pm-2), 10% defined fetal bovine serum, heat inactivated (HyClone Laboratories Inc., cat. SH30070.03HI), 50% L-WRN conditioned media (ATCC, cat. CRL-3276), 1.25 mM N-Acetyl-L-cysteine (Sigma-Aldrich, cat. A9165), 10 mM nicotinamide (Sigma-Aldrich, cat. N0636), 1X B-27 supplement (Thermo Fisher Scientific, cat. 17504044), 1X N-2 supplement (Thermo Fisher Scientific, cat. 17502048), 10 microM Y-27632 dihydrochloride (Tocris Bioscience, cat. 1254), and 50 ng/mL human EGF recombinant protein (Thermo Fisher Scientific, cat. PHG0311). The 485176-168-R4-J1-PDC line was cultured in Panc media, which includes all 6C/Colon 1B media components plus 100 ng/mL human FGF-10 (Thermo Fisher Scientific, cat. 100-26), 500 nM SB-431542 (Selleckchem, cat. S1067), and gastrin (Tocris, cat. 3006).
[…]

[1] = second compound 0.0316 µM, first compound 0.0316 µM
[2] = second compound 0.0316 µM, first compound 0.1 µM
[3] = second compound 0.0316 µM, first compound 0.316 µM
[4] = second compound 0.0316 µM, first compound 1 µM
[5] = second compound 0.0316 µM, first compound 3.16 µM
[6] = second compound 0.0316 µM, first compound 10 µM
[7] = second compound 0.1 µM, first compound 0.0316 µM
[8] = second compound 0.1 µM, first compound 0.1 µM
[9] = second compound 0.1 µM, first compound 0.316 µM
[10] = second compound 0.1 µM, first compound 1 µM
[11] = second compound 0.1 µM, first compound 3.16 µM
[12] = second compound 0.1 µM, first compound 10 µM
[13] = second compound 0.316 µM, first compound 0.0316 µM
[14] = second compound 0.316 µM, first compound 0.1 µM
[15] = second compound 0.316 µM, first compound 0.316 µM
[16] = second compound 0.316 µM, first compound 1 µM
[17] = second compound 0.316 µM, first compound 3.16 µM
[18] = second compound 0.316 µM, first compound 10 µM
[19] = second compound 1 µM, first compound 0.0316 µM
[20] = second compound 1 µM, first compound 0.1 µM
[21] = second compound 1 µM, first compound 0.316 µM
[22] = second compound 1 µM, first compound 1 µM
[23] = second compound 1 µM, first compound 3.16 µM
[24] = second compound 1 µM, first compound 10 µM
[25] = second compound 3.16 µM, first compound 0.0316 µM
[26] = second compound 3.16 µM, first compound 0.1 µM
[27] = second compound 3.16 µM, first compound 0.316 µM
[28] = second compound 3.16 µM, first compound 1 µM
[29] = second compound 3.16 µM, first compound 3.16 µM
[30] = second compound 3.16 µM, first compound 10 µM
[31] = second compound 10 µM, first compound 0.0316 µM
[32] = second compound 10 µM, first compound 0.1 µM
[33] = second compound 10 µM, first compound 0.316 µM
[34] = second compound 10 µM, first compound 1 µM
[35] = second compound 10 µM, first compound 3.16 µM
[36] = second compound 10 µM, first compound 10 µM
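Note: spheroids exposed to the agents for seven days.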
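Throughout, for viability, T/C: percent of DMSO vehicle control viability which is 100%.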

What does the source list for `C=CCn1c(=O)c2cnc(Nc3ccc(N4CCN(C)CC4)cc3)nc2n1-c1cccc(C(C)(C)O)n1` + Cc1cnc(CNC(=O)c2c(=O)c3ccc(N4CCCN(C)CC4)nc3n3c2sc2ccccc23)cn1?
IC50 (second compound 0.0316 µM): 0.129 µM; IC50 (second compound 0.1 µM): < 0.0316 µM; IC50 (second compound 0.316 µM): < 0.0316 µM; IC50 (second compound 1 µM): < 0.0316 µM; IC50 (second compound 3.16 µM): < 0.0316 µM; IC50 (second compound 10 µM): < 0.0316 µM; viability, T/C [1]: 55.6%; viability, T/C [2]: 56%; viability, T/C [3]: 33.9%; viability, T/C [4]: 23.6%; viability, T/C [5]: 19.9%; viability, T/C [6]: 16.5%; viability, T/C [7]: 48.1%; viability, T/C [8]: 40%; viability, T/C [9]: 28.9%; viability, T/C [10]: 22.7%; viability, T/C [11]: 21.2%; viability, T/C [12]: 15.2%; viability, T/C [13]: 43.8%; viability, T/C [14]: 39.8%; viability, T/C [15]: 24.6%; viability, T/C [16]: 21.1%; viability, T/C [17]: 20.7%; viability, T/C [18]: 16.5%; viability, T/C [19]: 34.5%; viability, T/C [20]: 32.2%; viability, T/C [21]: 22.4%; viability, T/C [22]: 19.9%; viability, T/C [23]: 20.7%; viability, T/C [24]: 17.3%; viability, T/C [25]: 31.4%; viability, T/C [26]: 26.6%; viability, T/C [27]: 18.5%; viability, T/C [28]: 22.5%; viability, T/C [29]: 25%; viability, T/C [30]: 18.3%; viability, T/C [31]: 26.8%; viability, T/C [32]: 20.5%; viability, T/C [33]: 16.8%; viability, T/C [34]: 17.8%; viability, T/C [35]: 22.4%; viability, T/C [36]: 19.5%

With `COc1ncnc(C2CC2)c1-c1ncc2cnn(Cc3ccc(-c4nc(C(F)(F)F)cn4C(C)C)cc3)c2n1` + Cc1cnc(CNC(=O)c2c(=O)c3ccc(N4CCCN(C)CC4)nc3n3c2sc2ccccc23)cn1 as the molecule, how does the IC50 (second compound 0.0316 µM) read?
Its IC50 is > 10 µM.

What about the IC50 (second compound 0.1 µM) of the same molecule?
The IC50 was < 0.0316 µM.

And the IC50 (second compound 0.316 µM)?
Its IC50 is < 0.0316 µM.

And the IC50 (second compound 1 µM)?
Its IC50 is < 0.0316 µM.

And the IC50 (second compound 3.16 µM)?
The IC50 was < 0.0316 µM.

What about the IC50 (second compound 10 µM) of the same molecule?
The IC50 was < 0.0316 µM.

What about the viability, T/C [1] of the same molecule?
The viability, T/C was 53.1%.

And the viability, T/C [2]?
Its viability, T/C is 54.6%.

And the viability, T/C [3]?
The viability, T/C was 59.3%.

And the viability, T/C [4]?
Its viability, T/C is 56%.

What about the viability, T/C [5] of the same molecule?
Its viability, T/C is 56.5%.

And the viability, T/C [6]?
Its viability, T/C is 58.2%.

And the viability, T/C [7]?
Its viability, T/C is 45.3%.

And the viability, T/C [8]?
Its viability, T/C is 45.5%.

And the viability, T/C [9]?
The viability, T/C was 45.9%.

What about the viability, T/C [10] of the same molecule?
The viability, T/C was 48.5%.

What about the viability, T/C [11] of the same molecule?
Its viability, T/C is 49%.

And the viability, T/C [12]?
The viability, T/C was 50%.

What about the viability, T/C [13] of the same molecule?
The viability, T/C was 42.7%.

And the viability, T/C [14]?
Its viability, T/C is 43.9%.

What about the viability, T/C [15] of the same molecule?
Its viability, T/C is 42.1%.

What about the viability, T/C [16] of the same molecule?
Its viability, T/C is 38.8%.

What about the viability, T/C [17] of the same molecule?
Its viability, T/C is 48.7%.

And the viability, T/C [18]?
The viability, T/C was 42.5%.

And the viability, T/C [19]?
Its viability, T/C is 39.9%.

And the viability, T/C [20]?
Its viability, T/C is 39.7%.

What about the viability, T/C [21] of the same molecule?
The viability, T/C was 37.1%.

What about the viability, T/C [22] of the same molecule?
The viability, T/C was 36.9%.

And the viability, T/C [23]?
Its viability, T/C is 40.5%.

What about the viability, T/C [24] of the same molecule?
The viability, T/C was 38.7%.

And the viability, T/C [25]?
The viability, T/C was 32%.

What about the viability, T/C [26] of the same molecule?
Its viability, T/C is 32.1%.

What about the viability, T/C [27] of the same molecule?
Its viability, T/C is 35.5%.

And the viability, T/C [28]?
The viability, T/C was 33.4%.

And the viability, T/C [29]?
The viability, T/C was 36.6%.

And the viability, T/C [30]?
Its viability, T/C is 34.1%.

What about the viability, T/C [31] of the same molecule?
The viability, T/C was 29.2%.

And the viability, T/C [32]?
Its viability, T/C is 28.8%.

What about the viability, T/C [33] of the same molecule?
The viability, T/C was 30.5%.

What about the viability, T/C [34] of the same molecule?
Its viability, T/C is 27.5%.

And the viability, T/C [35]?
The viability, T/C was 31.9%.

And the viability, T/C [36]?
Its viability, T/C is 29.3%.

Which results are given for `O=C(NO)c1cnc(N2CCN(S(=O)(=O)c3ccc4ccccc4c3)CC2)nc1` + Cc1cnc(CNC(=O)c2c(=O)c3ccc(N4CCCN(C)CC4)nc3n3c2sc2ccccc23)cn1?
IC50 (second compound 0.0316 µM): 0.109 µM; IC50 (second compound 0.1 µM): < 0.0316 µM; IC50 (second compound 0.316 µM): < 0.0316 µM; IC50 (second compound 1 µM): < 0.0316 µM; IC50 (second compound 3.16 µM): < 0.0316 µM; IC50 (second compound 10 µM): < 0.0316 µM; viability, T/C [1]: 54%; viability, T/C [2]: 53.5%; viability, T/C [3]: 33.2%; viability, T/C [4]: 15.1%; viability, T/C [5]: 12.3%; viability, T/C [6]: 4.21%; viability, T/C [7]: 48.3%; viability, T/C [8]: 42.8%; viability, T/C [9]: 31%; viability, T/C [10]: 16.3%; viability, T/C [11]: 10.7%; viability, T/C [12]: 4.01%; viability, T/C [13]: 40.8%; viability, T/C [14]: 42.9%; viability, T/C [15]: 23.7%; viability, T/C [16]: 14.1%; viability, T/C [17]: 7.68%; viability, T/C [18]: 1.96%; viability, T/C [19]: 40.4%; viability, T/C [20]: 36.3%; viability, T/C [21]: 22.4%; viability, T/C [22]: 7.98%; viability, T/C [23]: 3.91%; viability, T/C [24]: 0.11%; viability, T/C [25]: 37.8%; viability, T/C [26]: 34.1%; viability, T/C [27]: 20.5%; viability, T/C [28]: 0.25%; viability, T/C [29]: 0.07%; viability, T/C [30]: 0.11%; viability, T/C [31]: 31.9%; viability, T/C [32]: 27.6%; viability, T/C [33]: 21.5%; viability, T/C [34]: 0.17%; viability, T/C [35]: 0.14%; viability, T/C [36]: 0.18%
